Measurements from publication PMC10629879 (Frontiers in drug delivery, 2022).

Tests used:
[1] = tested on: isolated mouse brain microvessels; test: 125I-insulin surface binding and internalization in isolated brain microvessels with endocytosis inhibitors; type: cell-based; conditions: relative to vehicle; for amount of 125I-insulin internalized, difference vs vehicle (increase): inhibitor 15 min 37°C (monensin 10 μM, p = 0.079 not significant; CPZ 2.8 mM in 20% MeOH, p = 0.018), then 125I-insulin 15 min 37°C, cytoplasmic + membrane fraction; for microvessel surface binding of 125I-insulin, difference vs vehicle (increase): ~90 μg protein, inhibitor 15 min 37°C (monensin 10 μM; CPZ 2.8 mM in 20% MeOH), then 125I-insulin 400,000 CPM 15 min 37°C, acid-wash reversible binding, gamma counter, 2-3 biological replicates
Method: Whole brains were pooled and homogenized in chilled isolation buffer (DMEM, 25 mM HEPES, pH 7.4, 1% (w/v) dextran and 0.5% BSA) with a Dounce homogenizer. A range of 8–20 brains were pooled each experimental day. The homogenate was poured once through a 300 μm mesh, then twice through a 100 μm mesh. The filtrate was combined with an equivalent volume of chilled 40% dextran in isolation buffer and centrifuged at 3000 g for 30 min at 4°C. The pellet was resuspended in 1 ml of isolation buffer and pipetted twice through a 20 μm pluriStrainer® mesh (pluriSelect Life Science, Leipzig, Germany), before a final rinse with isolation buffer. […] The pellet was resuspended in 1 ml of PBS and spun at 500 g for 3 min at 4°C three times.
Briefly, the suspended pellet was evenly split between treatment groups, with two technical replicates per group. On average, each binding assay involved approximately 90 μg protein from the isolated microvessels in 40–45 μL. Each study was repeated with separate isolated microvessels for 2-3 biological replicates per study. Microvessels were treated with vehicle or an endocytosis inhibitor. Inhibitors were made up in incubation buffer and/or MeOH. Final concentrations for inhibitors include: monensin (10 μM), CPZ (2.8 mM in 20% MeOH), and filipin III (2 μg/ml in 0.2% MeOH) with respective vehicle MeOH controls. […] Samples were centrifuged at 10,000 g for 2 min at 4°C, and the supernatants were collected. The pellets were resuspended in incubation buffer, centrifuged at 4,225 g for 2 min at 4°C, and the supernatants were combined with the previous ones. The radioactivity in the pellets and combined supernatants were measured in a gamma counter (Wizard^2, PerkinElmer). In order to determine the amount of substrate bound to the cell surface, the pellet was resuspended in 400 μL of chilled acid wash buffer (0.2 M glycine, 0.15 M NaCl) to strip the surface of reversibly bound substrates on ice for 6 min, centrifuged at 4,225 g for 2 min at 4°C. The supernatant was collected and measured in a gamma counter as before to determine the amount of reversible binding (RB) at the plasma membrane, which we have called surface binding. To determine the amount of substrate internalized, the pellet was resuspended in 400 μL of chilled 1% BSA in deionized water and incubated for 1 h on ice to lyse the cells. The sample was centrifuged as before, the supernatant was collected, and the pellet was suspended again in 1% BSA and incubated on ice for 30 min. The sample was centrifuged, the supernatant was combined with the previous one, and both supernatant and pellet were measured in a gamma counter. […]
Percentages were calculated by dividing the measurement of interest (surface binding or internalization) by the total counts present in the sample and multiplying by 100. […]

blood-brain barrier [2] = type: in vivo, mouse; conditions: 50 μM monensin IV pre-treatment 30 min vs vehicle
Method: The reaction started with the addition of 10 μg chloramine-T in 0.25 M PB and terminated 1 min later with addition of 100 μg sodium metabisulfite. ^131I-albumin was labeled was labeled the same way except used 2 mCi ^131I (Perkin-Elmer, Waltham, MA, United States). ^131I-albumin was used as a vascular marker for the ^125I-transferrin multiple-time regression analysis transport studies as previously described ([Rhea et al., 2018]). A Sephadex G-10 column (Sigma-Aldrich) was used to separate labeled peptides and proteins from free iodine. Protein labeling was characterized by 15% trichloroacetic acid (TCA) precipitation. The radioactively labeled substrates we injected were quality-controlled materials, negating the overestimation of free ^125I.
FIGURE 3 Role of clathrin in transferrin hypothalamic BBB transport.

blood-brain barrier [3] = test: In situ brain perfusion: 125I-insulin BBB transport (Ki) and vascular binding (Vi) after inhibitor pre-perfusion; type: in vivo, mouse; conditions: for effect on 125I-insulin transport (Ki) or vascular binding (Vi) (in words): whole brain or olfactory bulb
Method: Following anesthesia, the thoracic cavity was opened and the descending thoracic aorta was clamped and jugular veins were cut to allow blood to drain from the brain vascular space. A 26-gauge butterfly needle was inserted into the left ventricle of the heart and mice were pre-perfused with vehicle or inhibitor at a rate of 2 ml/min. Mice were perfused with vehicle (1% MeOH in Zlokovic buffer: 7.19 g/L NaCl, 0.3 g/L KCl, 0.28 g/L CaCl2, 2.1 g/L NaHCO3, 0.16 g/L KH2PO4, 0.17 g/L anhydrous MgCl2, 0.99 g/L D-glucose and 1% BSA) ± 5 μM monensin or 2 μg/ml filipin III. […] Mice were perfused for timepoints ranging from 0.5 to 5 min. Whole brains, olfactory bulbs, and the hypothalamus were collected, weighed, and measured for radioactivity in a gamma counter. Brain/perfusate ratios (μL/g) were calculated by dividing the cpm per Gram of tissue by the cpm per μL of perfusate and plotted against perfusion time.
Regression analysis and other statistical analyses were performed using Prism 8.0 (GraphPad Software Inc., San Diego, CA, United States). For microvessel binding assays, the means are reported with their standard error terms and compared by a Student’s t test was. p values less than 0.05 were considered statistically significant. For in situ brain perfusion studies, linear regressions were performed on the brain/serum or brain/perfusate ratios using GraphPad Prism software. Linear regression lines were compared statistically with the Prism 8.0 software package. They are reported with their correlation coefficients (r) and linear regression p values.

insulin receptor = biological target: T1, insulin receptor (Mus musculus, UniProt P15208); test: In vivo regional 125I-S961 binding at the BBB after IV monensin pre-treatment; conditions: 30 min IV pre-treatment, 100 μL of 50 μM monensin in 10% MeOH in 0.1% BSA/LR; 125I-S961 circulated 5 min; olfactory bulb and 10 brain regions; two-way ANOVA treatment p = 0.0008, no post hoc differences; n = 6/group
T1 construct: from tissue; host or cells: living mouse; brain vasculature (olfactory bulb and 10 dissected brain regions)
Method: In anesthetized mice, the jugular vein was exposed and a 100 μL IV injection containing vehicle (10% MeOH in 0.1% BSA/LR) or monensin (50 μM in 10% MeOH in 0.1% BSA/LR) was administered. Thirty min later, a second 100 μL IV injection containing 1 × 10^6 ^125I-[…] was administered and circulated for 5 min. Blood was collected from the descending aorta, the olfactory bulbs and whole brains removed, and whole brains dissected into 10 brain regions according to the method by [Glowinski and Iversen, (1966)]. The amount of radioactivity in each region was counted in a gamma counter (Wizard^2, PerkinElmer) and corrected for the % injected ^125I-[…] (based on injection checks) and divided by the weight of the tissue (g) to get %Inj/g levels.

[4] = hypothalamus, 2 μg/ml filipin pre-perfusion 10 min
[5] = olfactory bulb, 2 μg/ml filipin pre-perfusion 10 min
[6] = whole brain, 2 μg/ml filipin pre-perfusion 10 min

T1 sequence (P15208 28-748 limits assumed): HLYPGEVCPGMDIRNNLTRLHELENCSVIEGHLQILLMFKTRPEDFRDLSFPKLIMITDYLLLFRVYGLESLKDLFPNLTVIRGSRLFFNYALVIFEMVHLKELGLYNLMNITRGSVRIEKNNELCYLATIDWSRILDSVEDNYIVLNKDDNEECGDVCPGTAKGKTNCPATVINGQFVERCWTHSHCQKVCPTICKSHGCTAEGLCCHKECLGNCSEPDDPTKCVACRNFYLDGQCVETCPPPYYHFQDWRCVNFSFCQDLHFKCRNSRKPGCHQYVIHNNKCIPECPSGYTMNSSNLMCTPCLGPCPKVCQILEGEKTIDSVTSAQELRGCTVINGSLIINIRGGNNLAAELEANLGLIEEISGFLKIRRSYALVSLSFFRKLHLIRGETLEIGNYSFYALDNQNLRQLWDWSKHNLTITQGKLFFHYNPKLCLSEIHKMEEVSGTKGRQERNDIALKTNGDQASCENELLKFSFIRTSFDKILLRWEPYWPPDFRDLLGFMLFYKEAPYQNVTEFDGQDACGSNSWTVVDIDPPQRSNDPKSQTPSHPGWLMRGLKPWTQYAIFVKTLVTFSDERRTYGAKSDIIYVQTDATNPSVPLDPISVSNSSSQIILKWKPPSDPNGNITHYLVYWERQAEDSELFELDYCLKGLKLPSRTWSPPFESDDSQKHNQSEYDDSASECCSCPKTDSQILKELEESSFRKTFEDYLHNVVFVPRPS
T1 sequence (P15208 753-1372 partner limits assumed): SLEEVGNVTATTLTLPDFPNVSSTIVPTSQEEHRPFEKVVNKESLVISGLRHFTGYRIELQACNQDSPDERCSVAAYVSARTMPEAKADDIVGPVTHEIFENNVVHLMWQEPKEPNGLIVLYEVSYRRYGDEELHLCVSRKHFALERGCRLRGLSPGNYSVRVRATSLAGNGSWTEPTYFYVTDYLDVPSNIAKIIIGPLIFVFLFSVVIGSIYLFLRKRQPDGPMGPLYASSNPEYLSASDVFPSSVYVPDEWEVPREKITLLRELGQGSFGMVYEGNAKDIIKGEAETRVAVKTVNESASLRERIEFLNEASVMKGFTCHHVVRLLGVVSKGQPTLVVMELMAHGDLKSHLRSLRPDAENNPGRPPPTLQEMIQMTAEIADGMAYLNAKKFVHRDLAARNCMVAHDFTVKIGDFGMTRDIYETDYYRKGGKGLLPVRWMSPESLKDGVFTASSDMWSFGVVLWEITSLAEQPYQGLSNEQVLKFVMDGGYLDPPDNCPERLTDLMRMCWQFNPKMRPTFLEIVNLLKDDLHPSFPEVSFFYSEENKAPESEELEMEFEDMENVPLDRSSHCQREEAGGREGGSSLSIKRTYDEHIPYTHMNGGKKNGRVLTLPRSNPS

Row | Structure (SMILES) | amount of 125I-insulin internalized, difference vs vehicle (increase) [1] [%] | microvessel surface binding of 125I-insulin, difference vs vehicle (increase) [1] [%] | decrease in hypothalamic BBB transport of 125I-transferrin (blood-brain barrier [2]) [%] | effect on 125I-insulin transport (Ki) or vascular binding (Vi) (in words) (blood-brain barrier [3]; 5 μM monensin pre-treatment 10 min) | 125I-S961 binding (%Inj/g), effect of pre-treatment (in words) (insulin receptor) | Vi of 125I-insulin (blood-brain barrier [3]; [4]) [µL/g] | effect on 125I-insulin transport (Ki) (in words) (blood-brain barrier [3]; [4]) | Ki of 125I-insulin (blood-brain barrier [3]; hypothalamus, 2 μg/ml filipin pre-perfusion 10 min, ns, slope did not significantly differ from zero) [µL/g/min] | Ki of 125I-insulin (blood-brain barrier [3]; hypothalamus, 2 μg/ml filipin pre-perfusion 10 min, ns, slope did not significantly differ from zero, listed as filipin) [µL/g/min] | Ki of 125I-insulin (blood-brain barrier [3]; [5]) [µL/g/min] | Vi of 125I-insulin (blood-brain barrier [3]; [5]) [µL/g] | effect on 125I-insulin transport (Ki) or vascular binding (Vi) (in words) (blood-brain barrier [3]; 2 μg/ml filipin pre-perfusion 10 min) | Ki of 125I-insulin (blood-brain barrier [3]; [6]) [µL/g/min] | Vi of 125I-insulin (blood-brain barrier [3]; [6]) [µL/g]
1 | CC[C@@]1([C@@H]2O[C@@H]([C@H]3O[C@@](O)(CO)[C@H](C)C[C@@H]3C)C[C@@H]2C)CC[C@H]([C@]2(C)CC[C@]3(C[C@H](O)[C@@H](C)[C@@H]([C@@H](C)[C@@H](OC)[C@H](C)C(=O)O)O3)O2)O1 [Monensin] | 33.7 | 36.3 | 80 | no effect | significantly increased | – | – | – | – | – | – | – | – | –
2 | CCCCC[C@@H](O)[C@H]1C(=O)O[C@H](C)[C@@H](O)/C=C/C=C/C=C/C=C/C=C(\C)[C@@H](O)C[C@H](O)C[C@H](O)C[C@H](O)C[C@H](O)C[C@H](O)C[C@@H]1O [Filipin, Filipin III] | – | – | – | – | – | 8.4 ± 2.3 | does limit transport | 0.94 ± 0.66 | 0.94 ± 0.43 | 3.06 ± 0.93 | 2.8 ± 3.0 | no effect | 0.94 ± 0.43 | 5.0 ± 1.5
3 | CN(C)CCCN1c2ccccc2Sc2ccc(Cl)cc21 [CPZ, chlorpromazine] | 76.9 | 42.2 | – | – | – | – | – | – | – | – | – | – | – | –
